Consider seven compounds from patent US20250176546A1, “ANTIMICROBIAL CaNCR PEPTIDE VARIANTS” (Donald Danforth Plant Science Center, priority 2022, published 2025).

Converted amounts (≈) assume the structure as drawn. Like-named read-outs stand apart in the source and are kept apart here. Peptide text beside a SMILES is read from it.

The subject of one assay is Botrytis cinerea. In words: Antifungal 96-well plate assay with resazurin cell viability readout. The assay is classed as cell-based. The note with it: chemically synthesized peptides; 2-fold dilution series; 48 h incubation, then resazurin overnight; lowest concentration with no change in blue color. The procedure: Antifungal activity of NCR13_AlaV1-V5 was assessed at different concentrations using a 2-fold dilution series of each peptide. Antifungal activity of each peptide was determined spectrophotometrically using the 96-well plate assay. Around 45 μL of each peptide at different concentrations was added to each well of the microtiter plate containing 45 μL of ˜[…] spore suspension. The quantitative fungal growth inhibition was determined by measuring the absorbance at 595 nm using a (Tecan Infinite M200 ProTecan Systems Inc., San Jose, CA) microplate reader after 48 h. The fungal cell viability was determined by the resazurin cell viability assay. After incubation of the pathogen/peptide mixture for 48 h, 10 μl of 0.1% resazurin solution was added to each well. After incubation of the mixture overnight, a change in the color of the resazurin dye from blue to pink or colorless indicated the presence of live fungal cells. The MIC for each peptide was the lowest concentration of each peptide at which no change in blue color occurred.

The test system of the next assay is Candida glabrata (38827). In words: In vitro antifungal activity (spectrophotometric) against human fungal pathogens. The following applies: Pichia pastoris-expressed peptide, half-strength potato dextrose broth.
A further assay deals with Candida auris (38883). The assay is described as above. The note with it: Pichia pastoris-expressed peptide, half-strength potato dextrose broth.
In the next assay the test system is Candida albicans (33795). The description is as above. The following applies: Pichia pastoris-expressed peptide, half-strength potato dextrose broth.
Assay [1] deals with Tricophyton rubrum (36381). Described as above. The following applies: Pichia pastoris-expressed peptide, half-strength potato dextrose broth.
Experimental: (§1) The in vitro antifungal activity of these peptides was determined spectrophotometrically as described in previous publications (Sagaram et al. 2013: Islam et al. 2017) in half-strength potato dextrose broth.
For assay [2], the system named is Tricophyton metagrophytes (26103). The description is as above. The following applies: Pichia pastoris-expressed peptide, half-strength potato dextrose broth.
Experimental: as §1

Experimental for Candida albicans (33795): as §1
Experimental for Candida auris (38883): as §1
Experimental for Candida glabrata (38827): as §1

In the case of `CC[C@H](C)[C@H](NC(=O)[C@H](CS)NC(=O)[C@H](CCCCN)NC(=O)[C@@H]1CCCN1C(=O)[C@@H](NC(=O)[C@H](CCCCN)NC(=O)[C@@H]1CCCN1C(=O)[C@H](CCCCN)NC(=O)[C@H](CCCNC(=N)N)NC(=O)[C@H](CS)NC(=O)[C@H](C)NC(=O)[C@H](Cc1ccccc1)NC(=O)[C@H](CCCCN)NC(=O)[C@H](CCCCN)NC(=O)[C@H](CS)NC(=O)[C@H](CC(=O)O)NC(=O)[C@H](CCCCN)NC(=O)[C@H](CC(=O)O)NC(=O)[C@H](CO)NC(=O)[C@H](CCC(N)=O)NC(=O)[C@H](CS)NC(=O)[C@@H]1CCCN1C(=O)[C@H](CCCCN)NC(=O)[C@@H](N)[C@@H](C)O)C(C)C)C(=O)N[C@@H](CC(N)=O)C(=O)NCC(=O)N[C@@H](Cc1ccccc1)C(=O)N[C@@H](CS)C(=O)N[C@@H](CCCCN)C(=O)N[C@@H](CS)C(=O)N[C@H](C(=O)N[C@@H](CCCNC(=N)N)C(=O)O)C(C)C` [NCR13, reference compound] (H-TKPCQSDKDCKKFACRKPKVPKCINGFCKCVR-OH; N-terminus and C-terminus assumed), the “MIC (μM) Fusarium graminearum” value in the assay with Fusarium graminearum (48 h) is 6 µM (≈ 22 µg/mL).

Take `CC[C@H](C)[C@H](NC(=O)[C@H](CS)NC(=O)[C@H](CCCCN)NC(=O)[C@@H]1CCCN1C(=O)[C@@H](NC(=O)[C@H](CCCCN)NC(=O)[C@@H]1CCCN1C(=O)[C@H](CCCCN)NC(=O)[C@H](CCCNC(=N)N)NC(=O)[C@H](CS)NC(=O)[C@H](C)NC(=O)[C@H](Cc1ccccc1)NC(=O)[C@H](CCCCN)NC(=O)[C@H](CCCCN)NC(=O)[C@H](CS)NC(=O)[C@H](C)NC(=O)[C@H](C)NC(=O)[C@H](C)NC(=O)[C@H](C)NC(=O)[C@H](C)NC(=O)[C@H](CS)NC(=O)[C@@H]1CCCN1C(=O)[C@H](CCCCN)NC(=O)[C@@H](N)[C@@H](C)O)C(C)C)C(=O)N[C@@H](CC(N)=O)C(=O)NCC(=O)N[C@@H](Cc1ccccc1)C(=O)N[C@@H](CS)C(=O)N[C@@H](CCCCN)C(=O)N[C@@H](CS)C(=O)N[C@H](C(=O)N[C@@H](CCCNC(=N)N)C(=O)O)C(C)C` [NCR13_AlaV1] (H-TKPCAAAAACKKFACRKPKVPKCINGFCKCVR-OH; N-terminus and C-terminus assumed): the “MIC (μM) Fusarium graminearum” value against Fusarium graminearum (48 h) came to 6 µM (≈ 20.7 µg/mL).

Consider `CC[C@H](C)[C@H](NC(=O)[C@H](CS)NC(=O)[C@H](C)NC(=O)[C@H](C)NC(=O)[C@H](C)NC(=O)[C@H](CCCCN)NC(=O)[C@@H]1CCCN1C(=O)[C@H](CCCCN)NC(=O)[C@H](CCCNC(=N)N)NC(=O)[C@H](CS)NC(=O)[C@H](C)NC(=O)[C@H](Cc1ccccc1)NC(=O)[C@H](CCCCN)NC(=O)[C@H](CCCCN)NC(=O)[C@H](CS)NC(=O)[C@H](CC(=O)O)NC(=O)[C@H](CCCCN)NC(=O)[C@H](CC(=O)O)NC(=O)[C@H](CO)NC(=O)[C@H](CCC(N)=O)NC(=O)[C@H](CS)NC(=O)[C@@H]1CCCN1C(=O)[C@H](CCCCN)NC(=O)[C@@H](N)[C@@H](C)O)C(=O)N[C@@H](CC(N)=O)C(=O)NCC(=O)N[C@@H](Cc1ccccc1)C(=O)N[C@@H](CS)C(=O)N[C@@H](CCCCN)C(=O)N[C@@H](CS)C(=O)N[C@H](C(=O)N[C@@H](CCCNC(=N)N)C(=O)O)C(C)C` [NCR13_AlaV4] (H-TKPCQSDKDCKKFACRKPKAAACINGFCKCVR-OH; N-terminus and C-terminus assumed), for which, in the assay on Fusarium graminearum (48 h), the “MIC (μM) Fusarium graminearum” value came out at 12 µM (≈ 42.6 µg/mL). Also, the “MIC (μM) Botrytis cinerea” value against Botrytis cinerea is “Inactive”.

In the case of `CC(C)[C@H](NC(=O)[C@H](CS)NC(=O)[C@H](CCCCN)NC(=O)[C@H](CS)NC(=O)[C@H](C)NC(=O)[C@H](C)NC(=O)[C@H](C)NC(=O)[C@H](C)NC(=O)[C@H](CS)NC(=O)[C@H](CCCCN)NC(=O)[C@@H]1CCCN1C(=O)[C@@H](NC(=O)[C@H](CCCCN)NC(=O)[C@@H]1CCCN1C(=O)[C@H](CCCCN)NC(=O)[C@H](CCCNC(=N)N)NC(=O)[C@H](CS)NC(=O)[C@H](C)NC(=O)[C@H](Cc1ccccc1)NC(=O)[C@H](CCCCN)NC(=O)[C@H](CCCCN)NC(=O)[C@H](CS)NC(=O)[C@H](CC(=O)O)NC(=O)[C@H](CCCCN)NC(=O)[C@H](CC(=O)O)NC(=O)[C@H](CO)NC(=O)[C@H](CCC(N)=O)NC(=O)[C@H](CS)NC(=O)[C@@H]1CCCN1C(=O)[C@H](CCCCN)NC(=O)[C@@H](N)[C@@H](C)O)C(C)C)C(=O)N[C@@H](CCCNC(=N)N)C(=O)O` [NCR13_AlaV5] (H-TKPCQSDKDCKKFACRKPKVPKCAAAACKCVR-OH; N-terminus and C-terminus assumed), the “MIC (μM) Fusarium graminearum” value against Fusarium graminearum (48 h) is 6 µM (≈ 21.1 µg/mL).

“CaNCR13: Wild-type nodule specific cysteine rich peptide from chickpea, SEQ ID NO: 1, expressed in Pichia pastoris and purified by FPLC and HPLC (TKPCQSDKDCKKFACRKPKVPKCINGFCKCVR; listed as Cicer arietinum)”: the “MIC” value was 0.41 µM with Candida glabrata (38827); 6.4 µM in the assay with Candida auris (38883); 3.2 µM in the assay with Candida albicans (33795); 3.2 µM in assay [1]; 0.41 µM in assay [2].

Consider “TKPCQSDKDCAAAACRKPKVPKCINGFCKCVR (SEQ ID NO: 42) [NCR13_AlaV2, Alanine scanning variant of NCR13]”, for which the “MIC (μM) Fusarium graminearum” value with Fusarium graminearum is reported as “Inactive”. Further, in the assay on Botrytis cinerea, the “MIC (μM) Botrytis cinerea” value is recorded as “Inactive”.

As to “TKPCQSDKDCKKFACAAAAVPKCINGFCKCVR (SEQ ID NO: 43) [NCR13_AlaV3, Alanine scanning variant of NCR13]”, the “MIC (μM) Fusarium graminearum” value against Fusarium graminearum is “Inactive”. In addition, the “MIC (μM) Botrytis cinerea” value against Botrytis cinerea is reported as “Inactive”.

A word on the MIC: it is the lowest concentration that inhibits growth of the organism.
